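Values below derive from 48-hour exposures of cells grown in 96-well plates, with endpoints linearly interpolated between the two concentrations bracketing the appropriate inhibition level. At the GI50, growth is halved. The concentration for full growth arrest is given as TGI.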
Legend:
Assay in all cases: growth of human tumour cells (NCI), 48 h
[1] = tested on: HCT-15 colon
[2] = tested on: COLO 205 colon
[3] = tested on: MDA-MB-231 breast
[4] = tested on: HOP-92 NSCLC
[5] = tested on: SNB-19 CNS
[6] = tested on: SNB-75 CNS
[7] = tested on: SW-620 colon
[8] = tested on: LOX IMVI melanoma
[9] = tested on: CAKI-1 renal
[10] = tested on: SR leukemia
[11] = tested on: SF-539 CNS
[12] = tested on: IGROV1 ovarian
[13] = tested on: MDA-MB-435
[14] = tested on: UACC-257 melanoma
[15] = tested on: RPMI-8226 leukemia
[16] = tested on: SF-268 CNS
[17] = tested on: BT-549 breast
[18] = tested on: KM12 colon
[19] = tested on: HT29 colon
[20] = tested on: OVCAR-8 ovarian
[21] = tested on: K-562 leukemia
[22] = tested on: 786-0 renal
[23] = tested on: A498 renal
[24] = tested on: HS 578T breast
[25] = tested on: EKVX NSCLC
[26] = tested on: M14 melanoma
[27] = tested on: OVCAR-5 ovarian
[28] = tested on: MALME-3M melanoma
[29] = tested on: SK-MEL-5 melanoma
[30] = tested on: UACC-62 melanoma
[31] = tested on: NCI/ADR-RES ovarian
[32] = tested on: PC-3 prostate
[33] = tested on: ACHN renal
[34] = tested on: MCF7 breast
[35] = tested on: T-47D breast
[36] = tested on: TK-10 renal
[37] = tested on: SF-295 CNS
[38] = tested on: SK-MEL-28 melanoma
[39] = tested on: SN12C renal
[40] = tested on: NCI-H460 lung
[41] = tested on: HOP-62 NSCLC
[42] = tested on: UO-31 renal
[43] = tested on: A549 NSCLC
[44] = tested on: HCC-2998 colon
[45] = tested on: OVCAR-4 ovarian
[46] = tested on: DU-145 prostate
[47] = tested on: HL-60(TB) leukemia
[48] = tested on: SK-MEL-2 melanoma
[49] = tested on: SK-OV-3 ovarian
[50] = tested on: MOLT-4 leukemia
[51] = tested on: U251 CNS
[52] = tested on: RXF 393 renal
[53] = tested on: NCI-H226 lung
[54] = tested on: NCI-H522 lung
[55] = tested on: OVCAR-3 ovarian

`Cc1ncn(-c2ccc(/C=N/Nc3ccnc4cc(Cl)ccc34)cc2)c1C` showed a GI50 [1] of 1.8 µM, a TGI [1] of 3.73 µM and a GI50 [2] of 1.74 µM. For the same molecule, the TGI [2] was 3.28 µM, the GI50 [3] was 2.08 µM and the TGI [3] was 3.84 µM. The GI50 [4] was 1.59 µM, the TGI [4] was 3.21 µM and the GI50 [5] was 1.88 µM. The TGI [5] was 3.88 µM, the GI50 [6] was 1.51 µM and the TGI [6] was 2.89 µM. The GI50 [7] was 1.63 µM, the TGI [7] was 3.54 µM and the GI50 [8] was 2.19 µM. For the same molecule, the TGI [8] was 3.98 µM, the GI50 [9] was 1.63 µM and the TGI [9] was 2.99 µM. For the same molecule, the GI50 [10] was 1.24 µM, the TGI [10] was 4.57 µM and the GI50 [11] was 1.82 µM. It also gave a TGI [11] of 3.24 µM, a GI50 [12] of 1.97 µM and a TGI [12] of 3.82 µM. It also gave a GI50 [13] of 1.65 µM, a TGI [13] of 3.05 µM and a GI50 [14] of 1.7 µM. It also gave a TGI [14] of 3.11 µM, a GI50 [15] of 1.99 µM and a TGI [15] of 4.52 µM. It also gave a GI50 [16] of 1.86 µM, a TGI [16] of 3.96 µM and a GI50 [17] of 1.83 µM. For the same molecule, the TGI [17] was 3.44 µM, the GI50 [18] was 2.38 µM and the TGI [18] was 5.79 µM. It also gave a GI50 [19] of 1.69 µM, a TGI [19] of 3.33 µM and a GI50 [20] of 1.87 µM. The TGI [20] was 3.67 µM, the GI50 [21] was 2.07 µM and the TGI [21] was 8.07 µM. The GI50 [22] was 1.61 µM, the TGI [22] was 3.25 µM and the GI50 [23] was 6.49 µM. For the same molecule, the TGI [23] was 20.2 µM, the GI50 [24] was 2.01 µM and the TGI [24] was 4.48 µM. For the same molecule, the GI50 [25] was 3.45 µM, the TGI [25] was 18 µM and the GI50 [26] was 1.81 µM. For the same molecule, the TGI [26] was 3.48 µM, the GI50 [27] was 3.03 µM and the TGI [27] was 10 µM. It also gave a GI50 [28] of 1.93 µM, a TGI [28] of 3.61 µM and a GI50 [29] of 2.07 µM. It also gave a TGI [29] of 4.38 µM, a GI50 [30] of 1.74 µM and a TGI [30] of 3.24 µM. The GI50 [31] was 2.07 µM, the TGI [31] was 5.04 µM and the GI50 [32] was 1.72 µM. The TGI [32] was 3.37 µM, the GI50 [33] was 1.79 µM and the TGI [33] was 3.18 µM. It also gave a GI50 [34] of 1.54 µM, a TGI [34] of 3.41 µM and a GI50 [35] of 1.83 µM. The TGI [35] was 3.83 µM, the GI50 [36] was 1.85 µM and the TGI [36] was 3.36 µM. For the same molecule, the GI50 [37] was 1.88 µM, the TGI [37] was 3.52 µM and the GI50 [38] was 1.65 µM. For the same molecule, the TGI [38] was 3.09 µM, the GI50 [39] was 1.75 µM and the TGI [39] was 3.47 µM. The GI50 [40] was 1.78 µM, the TGI [40] was 3.57 µM and the GI50 [41] was 1.74 µM. It also gave a TGI [41] of 3.2 µM, a GI50 [42] of 1.64 µM and a TGI [42] of 3.03 µM. For the same molecule, the GI50 [43] was 1.7 µM, the TGI [43] was 3.16 µM and the GI50 [44] was 1.92 µM. The TGI [44] was 3.52 µM, the GI50 [45] was 1.67 µM and the TGI [45] was 3.19 µM. It also gave a GI50 [46] of 1.88 µM, a TGI [46] of 3.7 µM and a GI50 [47] of 1.56 µM. It also gave a TGI [47] of 3.77 µM, a GI50 [48] of 1.73 µM and a TGI [48] of 3.22 µM. For the same molecule, the GI50 [49] was 1.8 µM, the TGI [49] was 3.36 µM and the GI50 [50] was 1.94 µM. For the same molecule, the TGI [50] was 5.12 µM, the GI50 [51] was 1.59 µM and the TGI [51] was 2.99 µM. For the same molecule, the GI50 [52] was 1.46 µM, the TGI [52] was 2.87 µM and the GI50 [53] was 2.42 µM. It also gave a TGI [53] of 6.87 µM, a GI50 [54] of 1.8 µM and a TGI [54] of 3.39 µM. The GI50 [55] was 1.83 µM and the TGI [55] was 3.75 µM.
